These compounds were tested against T1, human LCE (Homo sapiens, UniProt Q9H5J4) (assay: LCE enzymatic activity inhibition test). Conditions: human LCE enzyme, palmitoyl-CoA and [14C]-malonyl-CoA as substrates, pH 6.5, 37° C. for 90 minutes.
T1 sequence (Q9H5J4 1-265): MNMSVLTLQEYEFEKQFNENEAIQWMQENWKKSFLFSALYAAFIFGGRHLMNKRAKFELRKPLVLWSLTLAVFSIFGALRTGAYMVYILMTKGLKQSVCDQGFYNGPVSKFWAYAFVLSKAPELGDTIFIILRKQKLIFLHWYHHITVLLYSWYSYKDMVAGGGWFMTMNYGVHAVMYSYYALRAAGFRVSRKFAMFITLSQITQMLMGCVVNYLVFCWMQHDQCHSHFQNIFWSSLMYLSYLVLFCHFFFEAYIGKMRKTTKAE
Type: biochemical
Procedure: An LCE enzymatic activity inhibition test was carried out by a modified method of Moon (J. Biol. Chem., Vol. 276, pp. 45358-45366, (2001)) et al. That is, the diluted test compound was added to a 96-well assay plate (Corning, 96-Well Assay Block) in an amount of 1.0 μL per well, and thereafter, 50 μL of a phosphate buffer solution (a 100 mM potassium phosphate buffer solution (pH 6.5)), 25 μL of a substrate solution (a 100 mM potassium phosphate buffer solution (pH 6.5), 4.0 μM rotenone, 80 μM fatty acid-free bovine serum albumin, 160 μM palmitoyl-CoA, 80 μM malonyl-CoA, 3.5 μM [^14C]-malonyl-CoA (1.92 GBq/mmol, manufactured by Amersham, Inc.)) was added to each well, and further, 25 μL of an enzyme solution (a 100 mM potassium phosphate buffer solution (pH 6.5), 100 μg/mL human LCE) was added thereto. Then, the upper part of the plate was hermetically closed with a seal member, and the plate was incubated at 37° C. for 90 minutes while gently shaking and stirring. Thereafter, to each well, 100 μL of 5 N HCl was added and the assay plate was stirred at room temperature for 5 minutes, whereby the enzymatic reaction was stopped and also acyl-CoA was hydrolyzed. Thereafter, the enzymatic reaction solution in each well was adsorbed to each well of a 96-well GF/C filter plate (PerkinElmer, Unifilter 96GF/C) through which water had been passed in advance, and then, each well was washed with water to remove unadsorbed malonyl-CoA and the GF/C filter plate was dried at 50° C. for 60 minutes. Thereafter, to each well, 30 μL of a scintillator (PerkinElmer, Microscinti 0) was added and the upper part of the plate was sealed, and the radioactivity of the fixed [^14C] was measured using a microplate scintillation counter (PerkinElmer, Top Count) from which the enzymatic activity was determined The human LCE enzyme inhibitory activity of the test compound was calculated using the radioactivity obtained from a well to which DMSO containing no test compound is added as a control.

| SMILES | IC50 [nM] |
| --- | --- |
| O=C1Nc2ccc(Cl)cc2C(CCNC(=O)c2ccc(F)cc2)(C(F)(F)F)O1 (single isomer, unassigned) [Example 32, N-{2-[(4R*)-6-chloro-2-oxo-4-(trifluoromethyl)-1,4-dihydro-2H-3,1-benzoxazin-4-yl]ethyl}-4-fluorobenzamide] | 22 |
| O=C1Nc2ccc(Cl)cc2C(CCCNC(=O)c2ccc(F)cc2)(C(F)(F)F)O1 (single isomer, unassigned) [Example 33, N-{3-[(4R*)-6-chloro-2-oxo-4-(trifluoromethyl)-1,4-dihydro-2H-3,1-benzoxazin-4-yl]propyl}-4-fluorobenzamide] | 17 |
| O=C1Nc2ccc(Cl)cc2C(CCCNS(=O)(=O)c2ccccn2)(C(F)(F)F)O1 (single isomer, unassigned) [Example 119, N-{3-[(4R*)-6-chloro-2-oxo-4-(trifluoromethyl)-1,4-dihydro-2H-3,1-benzoxazin-4-yl]propyl}pyridine-2-sulfonamide] | 128 |
| O=C1Nc2ccc(Cl)cc2C(CCNS(=O)(=O)c2ccccn2)(C(F)(F)F)O1 (single isomer, unassigned) [Example 120, N-{2-[(4R*)-6-chloro-2-oxo-4-(trifluoromethyl)-1,4-dihydro-2H-3,1-benzoxazin-4-yl]ethyl}pyridine-2-sulfonamide] | 5.4 |
| Cn1cc(-c2ccc3c(c2)C(CNC(=O)c2ccc(F)cc2)(C(F)(F)F)OC(=O)N3)cn1 (single isomer, unassigned) [Example 133, (4S*)-4-fluoro-N-{[6-(1-methyl-1H-pyrazol-4-yl)-2-oxo-4-(trifluoromethyl)-1,4-dihydro-2H-3,1-benzoxazin-4-yl]methyl}benzamide] | 119 |
| O=C1Nc2ccc(-c3ccco3)cc2C(CNC(=O)c2ccc(F)cc2)(C(F)(F)F)O1 (stereo not shown) [Example 146, 4-fluoro-N-{[6-(2-furyl)-2-oxo-4-(trifluoromethyl)-1,4-dihydro-2H-3,1-benzoxazin-4-yl]methyl}benzamide] | 14 |

The remaining lines, values ahead:

| IC50 [nM] | SMILES |
| --- | --- |
| 17 | O=C1Nc2ccc(-c3cc[nH]n3)cc2C(CNS(=O)(=O)c2ccc(F)cc2)(C(F)(F)F)O1 (single isomer, unassigned) [Example 150, 4-fluoro-N-{[(4S*)-2-oxo-6-(1H-pyrazol-3-yl)-4-(trifluoromethyl)-1,4-dihydro-2H-3,1-benzoxazin-4-yl]methyl}benzenesulfonamide] |
| 16 | O=C1Nc2ccc(-c3cc[nH]n3)cc2C(CNS(=O)(=O)c2ccccn2)(C(F)(F)F)O1 (single isomer, unassigned) [Example 151, N-{[(4S*)-2-oxo-6-(1H-pyrazol-3-yl)-4-(trifluoromethyl)-1,4-dihydro-2H-3,1-benzoxazin-4-yl]methyl}pyridine-2-sulfonamide] |
| 6.6 | O=C1Nc2ccc(-c3ccn[nH]3)cc2C(CNC(=O)c2ccc(F)cc2)(C(F)(F)F)N1 (single isomer, unassigned) [Example 182, 4-fluoro-N-{[(4S*)-2-oxo-6-(1H-pyrazol-5-yl)-4-(trifluoromethyl)-1,2,3,4-tetrahydroquinazolin-4-yl]methyl}benzamide] |
| 45 | O=C1Nc2ccc(Cl)cc2C(CNC(=O)c2ccc(F)cc2)(C(F)(F)F)N1 (single isomer, unassigned) [Example 187, N-{[(4S*)-6-chloro-2-oxo-4-(trifluoromethyl)-1,2,3,4-tetrahydroquinazolin-4-yl]methyl}4-fluorobenzamide] |
| 13 | O=C1Nc2ccc(-c3cccs3)cc2C(CNC(=O)c2ccc(F)cc2)(C(F)(F)F)O1 (stereo not shown) [Example 147, 4-fluoro-N-{[2-oxo-6-(2-thienyl)-4-(trifluoromethyl)-1,4-dihydro-2H-3,1-benzoxazin-4-yl]methyl}benzamide] |
| 5.3 | CN1CCN(c2ccc3c(c2)C(CNC(=O)c2ccc(F)cc2)(C(F)(F)F)OC(=O)N3)C1=O (stereo not shown) [Example 174, 4-fluoro-N-{[6-(3-methyl-2-oxazolidin-1-yl)-2-oxo-4-(trifluoromethyl)-1,4-dihydro-2H-3,1-benzoxazin-4-yl]methyl}benzamide] |
| 7.3 | Cc1ccn(-c2ccc3c(c2)C(CNC(=O)c2ccc(F)cc2)(C(F)(F)F)OC(=O)N3)n1 (stereo not shown) [Example 178, 4-fluoro-N-{[6-(3-methyl-1H-pyrazol-1-yl)-2-oxo-4-(trifluoromethyl)-1,4-dihydro-2H-3,1-benzoxazin-4-yl]methyl}benzamide] |

Reference: patent US8314094B2, “Benzoxazinone derivative” (MSD K.K, priority 2007, dated 2012)
